According to patent publication US9426996B2, “Use of benzoxaboroles as volatile antimicrobial agents on meats, plants, or plant parts” (AgroFresh Inc., priority 2013, dated 2016):

Experiments:
[1] = tested on: Botrytis cinerea; assay: in vitro spore germination and mycelial growth after transfer; format: cell-based; conditions: for Mycelial growth after transfer (%): 3 d after transfer to clean PDA
Description: In order to assess the activity of Compound A as a volatile fungicide, an in vitro assay is developed to evaluate spore germination. 3.5-cm Petri plates are filled with 2 mL of water agar. After cooling, 1 μL of 1×10^5 per mL Botrytis cinerea spore suspension is spot-pipetted into the center of the plate. Plates are inoculated immediately prior to volatile fungicide treatment. A Whatman #1 filter disk (Cat. No. 1001-0155) is placed, in duplicate, on the underside of a plate lid. […] After 24 hours of storage at 23° C., 100 spores are counted for percent germination, where germination is defined as a germ tube that has extended a distance greater than the length of the spore. After counting, treatment is removed, and the plates are resealed. After an additional 24 hours, 100 spores are again counted. Plugs are then transferred to a clean plate containing full-strength PDA and allowed to incubate at 23° C. for an additional three days.

[2] = tested on: Alternaria alternata; assay: combination treatment with 1-MCP on broccoli; format: in vivo; design: scale not given here; conditions: 21° C.
Description: To evaluate a combination treatment of Compound A with 1-methylcyclopropene (1-MCP), an in vivo experiment is performed on broccoli.
Broccoli flowers are inoculated with 1×10^6 spores/mL of Alternaria alternata and then placed in a 117 L Rubbermaid storage box (Cat #2244) with two small fans placed in opposite ends of the container. A 500 ppb v/v 1-MCP treatment is applied (AgroFresh, Springhouse, Pa.) for 24 hours at 1° C. After completion of the 1-MCP treatment, broccoli florets are removed and placed in a 10.8-cup SnapWare airtight container (Model #109842). Compound A powder is applied in a dose dependent manner to achieve a final headspace concentration of 2 or 0.4 mg/L with a sublimation device (copper tube heated to 200° C. with fan flow at 0.5 L/min), with the end of the tube penetrating through a ½ inch side port in the container that is sealed immediately after the application. The florets are incubated for five days at 10° C. or three days at 21° C., then evaluated for an additional five days at 21° C. for disease incidence and severity.

[3] = tested on: Botrytis cinerea; assay: in vivo strawberry assay comparing fog and sublimation; conditions: 10 mg/L, three day treatment plus three days at 21° C.
Description: To compare the ability of Compound A when actively volatilized by different mechanisms, an in vivo assay using strawberry is performed. Eight strawberries are placed in a clamshell with stem end facing downwards. […] The clamshell is placed in a 10.8-cup SnapWare airtight container (Model #109842) and closed with the lids. Compound A is dissolved in acetone and volatilized through a sealable ½ inch side port by an ES-100-H SmartFog system (Reno, Nev.). Alternatively, Compound A, dissolved in acetone, is pipetted onto a cotton strip, where the acetone is allowed to evaporate for five minutes, and then introduced into the container by a sublimation device (copper tube heated to 200° C. with fan flow at 0.5 L/min) to achieve a final headspace concentration of 10 mg/L. The fruits are stored for three days at 21° C. After the three days of treatment, fruit are stored for an additional three days at 21° C., and then evaluated for incidence (%) and severity of disease (0 to 4).

[4] = tested on: Botrytis cinerea; assay: in vivo volatile assay on onion leaves; conditions: 10 mg/L, 21° C. for 3 days
Description: To test the effect of Compound A (FIG. 1) on vegetables, potato, onion and squash were obtained from a local store, and the surface sterilized with 0.825% sodium hypochlorite (NaOCl). A slice of potato or two leaves of onion were placed in a sterile Petri plate, while whole squash were placed in a sterile 10.8-cup SnapWare airtight container (Model #109842). Each slice of potato was inoculated with 20 μL of a 1×10^5 spores/mL Fusarium sambucinum suspension, while onions were inoculated with 20 μL of a 1×10^6 spores/mL Botrytis cinerea suspension. For inoculation of squash, a small core was removed, and a mycelial plug of Phytophthora capsici was inserted and capped with the core. Compound A was diluted in acetone, and added to a 42.5 mm Whatman #1 filter disk (Cat. No. 1001-042) attached to the inner side of the lid at a rate to achieve a final headspace concentration of 10 mg/L. The acetone was permitted to evaporate for 5 minutes before parafilm sealing the plates or closing the airtight containers. The vegetables were incubated at 21° C. for 3 days, and evaluated for mycelial growth, dry rot, and water-soaked appearance (mm diameter) with results summarized in Table 13.

[5] = tested on: Botrytis cinerea; assay: in vivo strawberry assay, release from cardboard or filter paper; conditions: strawberries
Source text: An in vivo assay is used to evaluate the ability of Compound A to volatilize from different materials and control fungal pathogens. Eight strawberries are placed in a clamshell with the stem end facing downwards. […] The clamshells are then placed in a 10.8-cup SnapWare airtight container (Model #109842). As a substrate for Compound A, either a 42.5 mm Whatman #1 filter disk (Cat. No. 1001-042) placed on a watch glass or 10 square centimeter (cm^2) pieces of cardboard typically used for packaging strawberries was used. Compound A is dissolved in acetone and either pipetted on the disk or painted on the cardboard at a rate to achieve a final headspace concentration of 0.4, 2, or 10 mg/L. The acetone is permitted to evaporate for five minutes. The containers are closed, and placed for three days at 21° C. After treatment, fruit are stored for an additional two days at 21° C. and then evaluated for incidence (%) and severity (0 to 4) of disease, with the results summarized in Table 24.

OB1OCc2cc(F)ccc21 [Compound A]
Spore germination (%) ([1]; 0.07 mg/L, 24 h + 24 h after treatment removal): 10.0% | Spore germination (%) ([1]; 0.07 mg/L, 24 h treatment): 0.0% | Mycelial growth after transfer (%) ([1]; 0.07 mg/L): 60.3% | Spore germination (%) ([1]; 0.14 mg/L, 24 h + 24 h after treatment removal): 0.0% | Spore germination (%) ([1]; 0.14 mg/L, 24 h treatment): 0.0% | Mycelial growth after transfer (%) ([1]; 0.14 mg/L): 53.8% | Spore germination (%) ([1]; 0.28 mg/L, 24 h + 24 h after treatment removal): 0.0% | Spore germination (%) ([1]; 0.28 mg/L, 24 h treatment): 0.0% | Mycelial growth after transfer (%) ([1]; 0.28 mg/L): 51.3% | Spore germination (%) ([1]; 0.56 mg/L, 24 h + 24 h after treatment removal): 0.0% | Spore germination (%) ([1]; 0.56 mg/L, 24 h treatment): 0.0% | Mycelial growth after transfer (%) ([1]; 0.56 mg/L): 43.3% | Spore germination (%) ([1]; 71.4 mg/L, 24 h + 24 h after treatment removal): 0.0% | Spore germination (%) ([1]; 71.4 mg/L, 24 h treatment): 0.0% | Mycelial growth after transfer (%) ([1]; 71.4 mg/L): 0.0% | Spore germination (%) ([1]; 142.9 mg/L, 24 h + 24 h after treatment removal): 0.0% | Spore germination (%) ([1]; 142.9 mg/L, 24 h treatment): 0.0% | Mycelial growth after transfer (%) ([1]; 142.9 mg/L): 0.0% | fungicidal or fungistatic effect ([1]; treated spores after the compound has been removed): fungicidal effect | Color Score ([2]; 0.4 mg/L): 1.32 | Severity ([2]; 0.4 mg/L): 0.29 | Color Score ([2]; 2 mg/L): 1.89 | Severity ([2]; 2 mg/L): 0.07 | Incidence (%) ([3]; Fog): 6.3% | Severity (0 to 4) ([3]; Fog): 0.03 | Incidence (%) ([3]; Sublimation): 0.0% | Severity (0 to 4) ([3]; Sublimation): 0.0 | Water soaked [4]: 0 mm | Incidence (%) ([5]; 0.4 mg/L, Cardboard): 87.5% | Severity (0-4) ([5]; 0.4 mg/L, Cardboard): 0.9 | Incidence (%) ([5]; 0.4 mg/L, Filter Paper): 56.3% | Severity (0-4) ([5]; 0.4 mg/L, Filter Paper): 2.5 | Incidence (%) ([5]; 2 mg/L, Cardboard): 37.5% | Severity (0-4) ([5]; 2 mg/L, Cardboard): 0.3 | Incidence (%) ([5]; 2 mg/L, Filter Paper): 37.5% | Severity (0-4) ([5]; 2 mg/L, Filter Paper): 0.6 | Incidence (%) ([5]; 10 mg/L, Cardboard): 25% | Severity (0-4) ([5]; 10 mg/L, Cardboard): 0.2 | Incidence (%) ([5]; 10 mg/L, Filter Paper): 18.8% | Severity (0-4) ([5]; 10 mg/L, Filter Paper): 0.3
